Laboratory results from patent US7932270B2 (Cytokinetics, Inc., priority 2006, dated 2011).

Biological target: T1, chicken gizzard smooth muscle myosin subfragment-1 chemically crosslinked to cardiac or skeletal actin (Gallus gallus, UniProt P10587)
T1 construct: chicken gizzard smooth muscle myosin subfragment-1; from tissue; host or cells: chicken gizzard
Experiment: Smooth muscle myosin ATPase dose response assay (pyruvate kinase/horseradish peroxidase/pyruvate oxidase-coupled, amplex red fluorescence)
Type: biochemical
Details: read-out: IC50 Arithmetic Mean
In short: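 Lead-optimization format: ATPase coupled via pyruvate kinase, pyruvate oxidase and peroxidase, pH 7.00 at 22° C, with 0.15 mM ATP, 100 mM KCl, 2 mM MgCl2, 2 mM phosphate and 0.1 mM amplex red (final). Crosslinked S1 titrated empirically for set hydrolysis rate; fluorescence (ex 480/em 615 nm) dose curves fit 4-parameter for IC50.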

T1 sequence (P02607 2-151): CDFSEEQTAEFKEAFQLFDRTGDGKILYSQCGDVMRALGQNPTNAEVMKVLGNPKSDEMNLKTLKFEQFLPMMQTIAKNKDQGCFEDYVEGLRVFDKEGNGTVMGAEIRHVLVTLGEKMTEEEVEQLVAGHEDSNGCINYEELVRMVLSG
T1 sequence (P10587 84-789): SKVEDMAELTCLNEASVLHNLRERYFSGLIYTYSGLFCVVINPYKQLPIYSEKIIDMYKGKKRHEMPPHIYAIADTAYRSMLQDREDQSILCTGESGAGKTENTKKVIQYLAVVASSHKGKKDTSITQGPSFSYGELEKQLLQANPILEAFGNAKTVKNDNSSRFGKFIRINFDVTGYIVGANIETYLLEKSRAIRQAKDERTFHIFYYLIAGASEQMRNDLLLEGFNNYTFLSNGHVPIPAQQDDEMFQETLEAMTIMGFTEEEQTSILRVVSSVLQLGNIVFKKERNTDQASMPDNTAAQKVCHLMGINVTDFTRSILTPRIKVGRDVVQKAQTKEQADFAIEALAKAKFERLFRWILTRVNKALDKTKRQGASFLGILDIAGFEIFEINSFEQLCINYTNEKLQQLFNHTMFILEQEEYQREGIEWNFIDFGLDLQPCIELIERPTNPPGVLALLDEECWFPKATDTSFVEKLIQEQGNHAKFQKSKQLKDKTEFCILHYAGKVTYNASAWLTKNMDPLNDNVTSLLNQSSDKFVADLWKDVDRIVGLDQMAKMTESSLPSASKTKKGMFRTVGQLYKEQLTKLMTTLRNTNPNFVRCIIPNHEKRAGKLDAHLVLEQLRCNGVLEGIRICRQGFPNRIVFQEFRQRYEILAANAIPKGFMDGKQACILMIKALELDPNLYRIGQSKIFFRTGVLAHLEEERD

Compound	IC50
Cc1cc(C(=O)NCc2cccnc2CN)c(NCCc2cccc(F)c2)nc1-c1cnn(C)c1 [N-{[2-(aminomethyl)(3-pyridyl)]methyl}(2-{[2-(3-fluorophenyl)ethyl]amino}-5-methyl-6-(1-methylpyrazol-4-yl)(3-pyridyl))carboxamide]	0.129 µM
NCc1ccnc(CNC(=O)c2ccc(-c3ccccc3)nc2NCCc2cccc(F)c2)c1 [N-{[4-(aminomethyl)(2-pyridyl)]methyl}(2-{[2-(3-fluorophenyl)ethyl]amino}-6-phenyl(3-pyridyl))carboxamide]	1.21 µM
N#Cc1ccccc1-c1ccc(C(=O)NCCC(N)=O)c(NCCc2cccc(F)c2)n1 [N-(2-carbamoylethyl)(6-(2-cyanophenyl)-2-{[2-(3-fluorophenyl)ethyl]amino}(3-pyridyl))carboxamide]	0.099 µM
CC(C)(C)OC(=O)NCCCC(=O)N1CCC[C@@H]1CNC(=O)c1cc(F)c(-c2cn[nH]c2)nc1NCCc1cccc(F)c1 [N-[((2R)-1-{4-[(tert-butoxy)carbonylamino]butanoyl}pyrrolidin-2-yl)methyl](5-fluoro-2-{[2-(3-fluorophenyl)ethyl]amino}-6-pyrazol-4-yl(3-pyridyl))carboxamide]	0.75 µM
NC(=O)c1ccc(-c2ccc(C(=O)NCc3cccnc3)c(NCCc3ccccn3)n2)cc1 [4-{6-[(2-(2-pyridyl)ethyl)amino]-5-[N-(3-pyridylmethyl)carbamoyl]-2-pyridyl}benzamide]	2.54 µM
CC(C)(C)OC(=O)NCCC(=O)N1CCCC[C@H]1CNC(=O)c1ccc(-c2ccccc2C#N)nc1NCCc1cccc(F)c1 [N-[((2S)-1-{3-[(tert-butoxy)carbonylamino]propanoyl}(2-piperidyl))methyl](6-(2-cyanophenyl)-2-{[2-(3-fluorophenyl)ethyl]amino}(3-pyridyl))carboxamide]	8.64 µM
N#Cc1ccccc1-c1ccc(CC(=O)NCc2cccnc2)c(NCCc2cccc(F)c2)n1 [2-(6-(2-cyanophenyl)-2-{[2-(3-fluorophenyl)ethyl]amino}(3-pyridyl))-N-(3-pyridylmethyl)acetamide]	13.2 µM
Cn1cc(-c2ccc(C(=O)NC[C@H]3CCCN3C(=O)OC(C)(C)C)c(NCCc3cccc(F)c3)n2)cn1 [tert-butyl (2R)-2-{[(2-{[2-(3-fluorophenyl)ethyl]amino}-6-(1-methylpyrazol-4-yl)(3-pyridyl))carbonylamino]methyl}pyrrolidinecarboxylate]	4.64 µM
N#Cc1ccccc1-c1ccc(C(=O)NCc2cccnc2)c(NCCc2ccccc2F)n1 [(6-(2-cyanophenyl)-2-{[2-(2-fluorophenyl)ethyl]amino}(3-pyridyl))-N-(3-pyridylmethyl)carboxamide]	0.028 µM
Cn1cc(-c2ccc(C(=O)NC[C@H]3CCC(=O)N3CCCN)c(NCCc3cccc(F)c3)n2)cn1 [N-{[(2R)-1-(3-aminopropyl)-5-oxopyrrolidin-2-yl]methyl}(2-{[2-(3-fluorophenyl)ethyl]amino}-6-(1-methylpyrazol-4-yl)(3-pyridyl))carboxamide]	0.29 µM
N#Cc1cscc1-c1ccc(C(=O)NCc2cccnc2)c(NCCc2cccc(F)c2)n1 [(6-(4-cyano(3-thienyl))-2-{[2-(3-fluorophenyl)ethyl]amino}(3-pyridyl))-N-(3-pyridylmethyl)carboxamide]	0.014 µM
Cn1cc(-c2nc(NCCc3cccc(F)c3)c(C(=O)NC[C@H](CO)NC(=O)OC(C)(C)C)cc2F)cn1 [N-((1R)-1-{[(5-fluoro-2-{[2-(3-fluorophenyl)ethyl]amino}-6-(1-methylpyrazol-4-yl)(3-pyridyl))carbonylamino]methyl}-2-hydroxyethyl)(tert-butoxy)carboxamide]	25.9 µM
NCCCn1ccc(CNC(=O)c2ccc(-c3cn[nH]c3)nc2NCCc2cccc(F)c2)n1 [N-{[1-(3-aminopropyl)pyrazol-3-yl]methyl}(2-{[2-(3-fluorophenyl)ethyl]amino}-6-pyrazol-4-yl(3-pyridyl))carboxamide]	1.41 µM
N#Cc1ccccc1-c1ccc(C(=O)NC[C@H]2CCCN(C(=O)CCN)C2)c(NCCc2cccc(F)c2)n1 [N-{[(3R)-1-(3-aminopropanoyl)(3-piperidyl)]methyl}(6-(2-cyanophenyl)-2-{[2-(3-fluorophenyl)ethyl]amino}(3-pyridyl))carboxamide]	0.173 µM
N#Cc1cc(C(=O)NC[C@H]2CCC(=O)N2CCCN)c(NCCc2cccc(F)c2)nc1-c1cn[nH]c1 [N-{[(2R)-1-(3-aminopropyl)-5-oxopyrrolidin-2-yl]methyl}(5-cyano-2-{[2-(3-fluorophenyl)ethyl]amino}-6-pyrazol-4-yl(3-pyridyl))carboxamide]	0.735 µM
N#Cc1ccccc1-c1ccc(C(=O)NCC2CCCCCN2C(=O)CCN)c(NCCc2cccc(F)c2)n1 (centres unmarked) [N-{[1-(3-aminopropanoyl)azaperhydroepin-2-yl]methyl}(6-(2-cyanophenyl)-2-{[2-(3-fluorophenyl)ethyl]amino}(3-pyridyl))carboxamide]	0.256 µM
CC(C)(C)OC(=O)NCCn1nccc1CNC(=O)c1ccc(-c2ccccc2C#N)nc1NCCc1cccc(F)c1 [N-[(1-{2-[(tert-butoxy)carbonylamino]ethyl}pyrazol-5-yl)methyl](6-(2-cyanophenyl)-2-{[2-(3-fluorophenyl)ethyl]amino}(3-pyridyl))carboxamide]	2.2 µM
O=C(NCc1cccnc1)c1ccc(-c2ccccc2)nc1NCC(O)c1ccccc1 (centres unmarked) [{2-[(2-hydroxy-2-phenylethyl)amino]-6-phenyl(3-pyridyl)}-N-(3-pyridylmethyl)carboxamide]	1.94 µM

Further molecules by falling IC50, results first:

IC50	Compound
3.87 µM	N#Cc1ccccc1-c1ccc(C(=O)NCC2CCN(C(=O)CCN)CC2)c(NCCc2cccc(F)c2)n1 [N-{[1-(3-aminopropanoyl)(4-piperidyl)]methyl}(6-(2-cyanophenyl)-2-{[2-(3-fluorophenyl)ethyl]amino}(3-pyridyl))carboxamide]
2.64 µM	N#Cc1ccccc1-c1ccc(C(=O)NCCN)c(NCCc2cccc(F)c2)n1 [N-(2-aminoethyl)(6-(2-cyanophenyl)-2-{[2-(3-fluorophenyl)ethyl]amino}(3-pyridyl))carboxamide]
2.32 µM	CNC(=O)[C@@H](N)CNC(=O)c1ccc(-c2ccccc2C#N)nc1NCCc1cccc(F)c1 [(2S)-2-amino-3-[(6-(2-cyanophenyl)-2-{[2-(3-fluorophenyl)ethyl]amino}(3-pyridyl))carbonylamino]-N-methylpropanamide]
2.02 µM	C[C@@H](CNC(=O)c1ccc(-c2ccccc2C#N)nc1NCCc1cccc(F)c1)NC(=O)CCCNC(=O)OC(C)(C)C
1.12 µM	COC(=O)NCCNC(=O)c1ccc(-c2ccccc2C#N)nc1NCCc1cccc(F)c1 [(6-(2-cyanophenyl)-2-{[2-(3-fluorophenyl)ethyl]amino}(3-pyridyl))-N-[2-(methoxycarbonylamino)ethyl]carboxamide]
1.02 µM	CC1(C)OCC(CNC(=O)c2ccc(-c3ccccc3C#N)nc2NCCc2cccc(F)c2)CO1 [N-[(2,2-dimethyl(1,3-dioxan-5-yl))methyl](6-(2-cyanophenyl)-2-{[2-(3-fluorophenyl)ethyl]amino}(3-pyridyl))carboxamide]
0.603 µM	Cn1cc(-c2ccc(C(=O)NCC3CCCCC(=O)N3)c(NCCc3cccc(F)c3)n2)cn1 (centres unmarked) [(2-{[2-(3-fluorophenyl)ethyl]amino}-6-(1-methylpyrazol-4-yl)(3-pyridyl))-N-[(7-oxoazaperhydroepin-2-yl)methyl]carboxamide]
0.42 µM	NCc1ccc(CNC(=O)c2ccc(-c3ccccc3)nc2NCCc2cccc(F)c2)cn1 [N-{[6-(aminomethyl)(3-pyridyl)]methyl}(2-{[2-(3-fluorophenyl)ethyl]amino}-6-phenyl(3-pyridyl))carboxamide]
0.178 µM	CC(=O)c1ccc(-c2ccc(C(=O)NCc3cccnc3)c(NCCc3cccc(F)c3)n2)s1 [(6-(5-acetyl(2-thienyl))-2-{[2-(3-fluorophenyl)ethyl]amino}(3-pyridyl))-N-(3-pyridylmethyl)carboxamide]
0.166 µM	C[C@@H](N)C(=O)N1CCC[C@@H]1CNC(=O)c1ccc(-c2ccccc2C#N)nc1NCCc1cccc(F)c1 [N-{[(2R)-1-((2R)-2-aminopropanoyl)pyrrolidin-2-yl]methyl}(6-(2-cyanophenyl)-2-{[2-(3-fluorophenyl)ethyl]amino}(3-pyridyl))carboxamide]
0.101 µM	COC(=O)CNC(=O)c1ccc(-c2ccccc2C#N)nc1NCCc1cccc(F)c1 [methyl 2-[(6-(2-cyanophenyl)-2-{[2-(3-fluorophenyl)ethyl]amino}-3-pyridyl)carbonylamino]acetate]
0.087 µM	COc1ncccc1CNC(=O)c1ccc(-c2ccccc2C#N)nc1NCCc1cccc(F)c1 [(6-(2-cyanophenyl)-2-{[2-(3-fluorophenyl)ethyl]amino}(3-pyridyl))-N-[(2-methoxy(3-pyridyl))methyl]carboxamide]
0.076 µM	Cc1ccccc1CCNc1nc(-c2ccccc2C#N)ccc1C(=O)NCc1cccnc1 [(6-(2-cyanophenyl)-2-{[2-(2-methylphenyl)ethyl]amino}(3-pyridyl))-N-(3-pyridylmethyl)carboxamide]
0.073 µM	COC(=O)N1CC[C@@H]1CNC(=O)c1ccc(-c2ccccc2C#N)nc1NCCc1cccc(F)c1 [methyl (2R)-2-{[(6-(2-cyanophenyl)-2-{[2-(3-fluorophenyl)ethyl]amino}(3-pyridyl))carbonylamino]methyl}azetidinecarboxylate]
0.046 µM	O=C(NCc1cccnc1Cl)c1ccc(-c2cn[nH]c2)nc1NCCc1cccc(F)c1
0.031 µM	Cn1cc(-c2ccc(C(=O)NCc3cc[nH]n3)c(NCCc3cccc(F)c3)n2)cn1 [(2-{[2-(3-fluorophenyl)ethyl]amino}-6-(1-methylpyrazol-4-yl)(3-pyridyl))-N-(pyrazol-3-ylmethyl)carboxamide]
0.014 µM	NCc1ncccc1CNC(=O)c1cc(F)c(-c2cc[nH]n2)nc1NCCc1cccc(F)c1 [N-{[2-(aminomethyl)(3-pyridyl)]methyl}(5-fluoro-2-{[2-(3-fluorophenyl)ethyl]amino}-6-pyrazol-3-yl(3-pyridyl))carboxamide]
